ChEMBL document CHEMBL5608235, “Tricyclic Benzo[1,3]oxazinyloxazolidinones as Potent Antibacterial Agents against Drug-Resistant Pathogens” (J Med Chem, 2024)
In brackets after ≈: the same amount, converted by molar mass.

Columns and labels:
Enterococcus faecalis [1] = experiment: Antibacterial activity against Enterococcus faecalis ATCC29212 assessed as inhibition of bacterial growth incubated for 18 hrs by microdilution broth assay; format: functional
Bacillus subtilis = experiment: Antibacterial activity against Bacillus subtilis ATCC6633 assessed as inhibition of bacterial growth incubated for 18 hrs by microdilution broth assay; format: functional
[2] = system: Mycobacterium tuberculosis; experiment: Antibacterial activity against Mycobacterium tuberculosis H37Rv assessed as inhibition of bacterial growth incubated for 7 days by alamar blue assay; format: functional; details: 168 h, time 7 day
Staphylococcus aureus [3] = experiment: Antibacterial activity against Staphylococcus aureus ATCC25923 assessed as inhibition of bacterial growth incubated for 18 hrs by microdilution broth assay; format: functional
Staphylococcus aureus [4] = experiment: Antibacterial activity against methicillin resistant Staphylococcus aureus clinical isolate 20-1 assessed as inhibition of bacterial growth incubated for 7 days by alamar blue assay; format: functional; details: clinical isolate 20-1, 168 h, time 7 day
[5] = system: Staphylococcus epidermidis; experiment: Antibacterial activity against methicillin resistant Staphylococcus epidermidis clinical isolate 20-1 assessed as inhibition of bacterial growth incubated for 7 days by alamar blue assay; format: functional; details: clinical isolate 20-1, 168 h, time 7 day
[6] = Metabolic stability in human liver microsomes assessed as compound remaining at 10 uM incubated for 60 mins in absence of NADPH by LC-MS/MS analysis; format: ADME, Microsome; details: read-out: Stability
Staphylococcus aureus [7] = experiment: Antibacterial activity against vancomycin intermediate Staphylococcus aureus ATCC700699 assessed as inhibition of bacterial growth incubated for 7 days by alamar blue assay; format: functional; details: ATCC700699, 168 h, time 7 day
Staphylococcus aureus [8] = experiment: Antibacterial activity against Linezolid resistant Staphylococcus aureus clinical isolate 20-2 assessed as inhibition of bacterial growth incubated for 7 days by alamar blue assay; format: functional; details: clinical isolate 20-2, 168 h, time 7 day
Staphylococcus aureus [9] = experiment: Antibacterial activity against Linezolid resistant Staphylococcus aureus clinical isolate 20-1 assessed as inhibition of bacterial growth incubated for 7 days by alamar blue assay; format: functional; details: clinical isolate 20-1, 168 h, time 7 day
[10] = Metabolic stability in ICR mouse liver microsomes assessed as substrate remaining at 10 uM incubated for 60 mins in presence of NADPH by LC-MS/MS analysis; format: ADME, Microsome; details: read-out: Stability
[11] = system: Staphylococcus epidermidis; experiment: Antibacterial activity against methicillin resistant Staphylococcus epidermidis clinical isolate 20-2 assessed as inhibition of bacterial growth incubated for 7 days by alamar blue assay; format: functional; details: clinical isolate 20-2, 168 h, time 7 day
Enterococcus faecalis [12] = experiment: Antibacterial activity against Linezolid resistant Enterococcus faecalis clinical isolate 20-2 assessed as inhibition of bacterial growth incubated for 7 days by alamar blue assay; format: functional; details: clinical isolate 20-2, 168 h, time 7 day
[13] = Cytotoxicity against African green monkey Vero cells incubated for 48 hrs by MTT assay; format: toxicity, cell-based, Chlorocebus sabaeus
[14] = system: Staphylococcus epidermidis; experiment: Antibacterial activity against Staphylococcus epidermidis ATCC12228 assessed as inhibition of bacterial growth incubated for 18 hrs by microdilution broth assay; format: functional
Enterococcus faecalis [15] = experiment: Antibacterial activity against Linezolid resistant Enterococcus faecalis clinical isolate 20-1 assessed as inhibition of bacterial growth incubated for 7 days by alamar blue assay; format: functional; details: clinical isolate 20-1, 168 h, time 7 day
Enterococcus = experiment: Antibacterial activity against vancomycin resistant Enterococcus clinical isolate 20-1 assessed as inhibition of bacterial growth incubated for 7 days by alamar blue assay; format: functional; details: clinical isolate 20-1, 168 h, time 7 day
Staphylococcus aureus [16] = experiment: Antibacterial activity against methicillin resistant Staphylococcus aureus clinical isolate 20-2 assessed as inhibition of bacterial growth incubated for 7 days by alamar blue assay; format: functional; details: clinical isolate 20-2, 168 h, time 7 day
[17] = Metabolic stability in ICR mouse liver microsomes assessed as compound remaining at 10 uM incubated for 60 mins in absence of NADPH by LC-MS/MS analysis; format: ADME, Microsome; details: read-out: Stability
[18] = Metabolic stability in human liver microsomes assessed as substrate remaining at 10 uM incubated for 60 mins in presence of NADPH by LC-MS/MS analysis; format: ADME, Microsome; details: read-out: Stability
[19] = Oral bioavailability in BALB/c mouse at 10 mg/kg administration measured upto 24 hrs by LC-MS/MS analysis; format: ADME, organism-based; details: BALB/c, in vivo

CC(=O)NC[C@H]1OC(=O)N2Cc3cc(-c4ccc(-c5nnn(C)n5)nc4)c(F)cc3O[C@@H]12
MIC (Enterococcus faecalis [1]): 0.5 mg/L (≈ 1.14 µM)
MIC (Bacillus subtilis): 0.125 mg/L (≈ 0.284 µM)
MIC [2]: 0.54 mg/L (≈ 1.23 µM)
MIC (Staphylococcus aureus [3]): 0.125 mg/L (≈ 0.284 µM)

COC(=O)NC[C@@H]1OC(=O)N2Cc3cc(-c4ccc(-c5nnn(C)n5)nc4)c(F)cc3O[C@@H]12
MIC (Staphylococcus aureus [4]): 0.25 mg/L (≈ 0.549 µM)
MIC [5]: 0.125 mg/L (≈ 0.274 µM)
MIC (Enterococcus faecalis [1]): 0.5 mg/L (≈ 1.1 µM)
remaining at 1 h, 10 µM [6]: 120%
MIC (Staphylococcus aureus [7]): 0.5 mg/L (≈ 1.1 µM)
MIC (Staphylococcus aureus [8]): 8 mg/L (≈ 17.6 µM)
MIC (Staphylococcus aureus [9]): 8 mg/L (≈ 17.6 µM)
remaining at 1 h, 10 µM [10]: 102%
MIC (Bacillus subtilis): 0.125 mg/L (≈ 0.274 µM)
MIC [11]: 0.125 mg/L (≈ 0.274 µM)
MIC [2]: 0.49 mg/L (≈ 1.08 µM)
MIC (Enterococcus faecalis [12]): 1 mg/L (≈ 2.2 µM)
MIC (Staphylococcus aureus [3]): 4 mg/L (≈ 8.78 µM)
IC50 at 48 h [13]: 37 mg/L (≈ 81.2 µM)
MIC [14]: 0.125 mg/L (≈ 0.274 µM)
MIC (Enterococcus faecalis [15]): 1 mg/L (≈ 2.2 µM)
MIC (Enterococcus): 0.5 mg/L (≈ 1.1 µM)
MIC (Staphylococcus aureus [16]): 0.25 mg/L (≈ 0.549 µM)
remaining at 1 h, 10 µM [17]: 104%
remaining at 1 h, 10 µM [18]: 110%

CC(=O)NC[C@@H]1OC(=O)N2Cc3c(cc(F)c(-c4ccc(C(C)=O)cc4)c3F)O[C@@H]12
MIC (Enterococcus faecalis [1]): 0.25 mg/L (≈ 0.6 µM)
MIC (Bacillus subtilis): 0.125 mg/L (≈ 0.3 µM)
MIC [2]: 0.93 mg/L (≈ 2.23 µM)
MIC (Staphylococcus aureus [3]): 4 mg/L (≈ 9.61 µM)
IC50 at 48 h [13]: > 64 mg/L
MIC [14]: 0.25 mg/L (≈ 0.6 µM)

CC(=O)NC[C@@H]1OC(=O)N2Cc3cc(-c4ccn5ncnc5c4)c(F)cc3O[C@@H]12
MIC (Enterococcus faecalis [1]): 0.5 mg/L (≈ 1.26 µM)
MIC (Bacillus subtilis): 0.5 mg/L (≈ 1.26 µM)
MIC [2]: 1.43 mg/L (≈ 3.6 µM)
MIC (Staphylococcus aureus [3]): 8 mg/L (≈ 20.1 µM)
IC50 at 48 h [13]: > 64 mg/L
MIC [14]: 2 mg/L (≈ 5.03 µM)

CC(=O)Nc1ccc(O)cc1 [ACETAMINOPHEN]
bioavailability [19]: 27.6%

COC(=O)NC[C@@H]1OC(=O)N2Cc3cc(-c4ccc(C(C)=O)cc4)c(F)cc3O[C@@H]12
MIC (Enterococcus faecalis [1]): 0.5 mg/L (≈ 1.21 µM)
MIC (Bacillus subtilis): 0.125 mg/L (≈ 0.302 µM)
MIC [2]: 1.74 mg/L (≈ 4.2 µM)
MIC (Staphylococcus aureus [3]): > 64 mg/L
MIC [14]: 0.5 mg/L (≈ 1.21 µM)

CC(=O)NC[C@@H]1OC(=O)N2Cc3c(cc(F)c(-c4ccc(C#N)nc4)c3F)O[C@@H]12
MIC (Staphylococcus aureus [4]): 1 mg/L (≈ 2.5 µM)
MIC [5]: 0.5 mg/L (≈ 1.25 µM)
MIC (Enterococcus faecalis [1]): 0.5 mg/L (≈ 1.25 µM)
MIC (Staphylococcus aureus [7]): 1 mg/L (≈ 2.5 µM)
MIC (Staphylococcus aureus [8]): 8 mg/L (≈ 20 µM)
MIC (Staphylococcus aureus [9]): 8 mg/L (≈ 20 µM)
MIC (Bacillus subtilis): 0.032 mg/L (≈ 0.0799 µM)
MIC [11]: 0.5 mg/L (≈ 1.25 µM)
MIC [2]: 0.97 mg/L (≈ 2.42 µM)
MIC (Enterococcus faecalis [12]): 2 mg/L (≈ 5 µM)
MIC (Staphylococcus aureus [3]): 1 mg/L (≈ 2.5 µM)
IC50 at 48 h [13]: > 64 mg/L
MIC [14]: 0.125 mg/L (≈ 0.312 µM)
MIC (Enterococcus faecalis [15]): 2 mg/L (≈ 5 µM)
MIC (Enterococcus): 1 mg/L (≈ 2.5 µM)
MIC (Staphylococcus aureus [16]): 1 mg/L (≈ 2.5 µM)

CC(=O)NC[C@@H]1OC(=O)N2Cc3cc(-c4ccc5c(c4)NC(=O)CO5)c(F)cc3O[C@@H]12
MIC (Enterococcus faecalis [1]): 1 mg/L (≈ 2.34 µM)
MIC (Bacillus subtilis): 16 mg/L (≈ 37.4 µM)
MIC [2]: 0.9 mg/L (≈ 2.11 µM)
MIC (Staphylococcus aureus [3]): 32 mg/L (≈ 74.9 µM)
IC50 at 48 h [13]: 40 mg/L (≈ 93.6 µM)
MIC [14]: 2 mg/L (≈ 4.68 µM)

CC(=O)NC[C@H]1OC(=O)N2Cc3c(cc(F)c(-c4ccc(C#N)nc4)c3F)O[C@H]12
MIC (Enterococcus faecalis [1]): > 64 mg/L
MIC (Bacillus subtilis): > 64 mg/L
MIC [2]: > 32 mg/L
MIC (Staphylococcus aureus [3]): > 64 mg/L
MIC [14]: > 64 mg/L

CC(=O)NC[C@@H]1OC(=O)N2Cc3cc(-c4ccc(C(C)=O)cc4)c(F)cc3O[C@@H]12
MIC (Enterococcus faecalis [1]): 1 mg/L (≈ 2.51 µM)
MIC (Bacillus subtilis): 0.5 mg/L (≈ 1.26 µM)
MIC [2]: 0.74 mg/L (≈ 1.86 µM)
MIC (Staphylococcus aureus [3]): 8 mg/L (≈ 20.1 µM)
IC50 at 48 h [13]: 49 mg/L (≈ 123 µM)
MIC [14]: 2 mg/L (≈ 5.02 µM)

COc1ccc(-c2c(F)cc3c(c2F)CN2C(=O)O[C@@H](CNC(C)=O)[C@@H]2O3)cn1
MIC (Enterococcus faecalis [1]): 0.5 mg/L (≈ 1.23 µM)
MIC (Bacillus subtilis): 0.032 mg/L (≈ 0.0789 µM)
MIC [2]: 6.75 mg/L (≈ 16.7 µM)
MIC (Staphylococcus aureus [3]): 8 mg/L (≈ 19.7 µM)
MIC [14]: 0.5 mg/L (≈ 1.23 µM)

Cn1nnc(-c2ccc(-c3c(F)cc4c(c3F)CN3C(=O)O[C@@H](CN)[C@@H]3O4)cn2)n1
MIC (Enterococcus faecalis [1]): > 64 mg/L
MIC (Bacillus subtilis): 64 mg/L (≈ 154 µM)
MIC [2]: 0.74 mg/L (≈ 1.78 µM)
MIC (Staphylococcus aureus [3]): > 64 mg/L
IC50 at 48 h [13]: 16 mg/L (≈ 38.5 µM)
MIC [14]: 64 mg/L (≈ 154 µM)

CC(=O)NC[C@@H]1OC(=O)N2Cc3c(cc(F)c(-c4ccc(-c5nnn(C)n5)nc4)c3F)O[C@@H]12
MIC (Staphylococcus aureus [4]): 1 mg/L (≈ 2.19 µM)
MIC [5]: 0.5 mg/L (≈ 1.09 µM)
MIC (Enterococcus faecalis [1]): 2 mg/L (≈ 4.37 µM)
MIC (Staphylococcus aureus [7]): 1 mg/L (≈ 2.19 µM)
MIC (Staphylococcus aureus [8]): 8 mg/L (≈ 17.5 µM)
MIC (Staphylococcus aureus [9]): 8 mg/L (≈ 17.5 µM)
MIC (Bacillus subtilis): 0.125 mg/L (≈ 0.273 µM)
MIC [11]: 0.5 mg/L (≈ 1.09 µM)
MIC [2]: 0.74 mg/L (≈ 1.62 µM)
MIC (Enterococcus faecalis [12]): 2 mg/L (≈ 4.37 µM)
MIC (Staphylococcus aureus [3]): 1 mg/L (≈ 2.19 µM)
IC50 at 48 h [13]: > 64 mg/L
MIC [14]: 2 mg/L (≈ 4.37 µM)
MIC (Enterococcus faecalis [15]): 2 mg/L (≈ 4.37 µM)
MIC (Enterococcus): 1 mg/L (≈ 2.19 µM)
MIC (Staphylococcus aureus [16]): 1 mg/L (≈ 2.19 µM)
